# Source: patent US9486506B2 (Novo Nordisk A/S, priority 2011, dated 2016)
# How the values were obtained:
# [1] = molecular target: T1, glucagon receptor (Homo sapiens, UniProt P47871); test: Assay (I) Glucagon activity (cAMP biosensor, FLIPR); assay type: cell-based
# T1 construct: expressed in transfected cells
# [2] = Assay (X) Chemical stability assessment by RP-UPLC; assay type: physicochemical; conditions: pH 8.15, 14 days at 37° C. vs 5° C., 333 μM
# [3] = Assay (XI) Pharmacokinetic study in minipigs; assay type: in vivo, Göttingen minipigs; conditions: both sexes, Göttingen, minipig, plasma, iv, i.v. administration, terminal half-life, read-out: iv PK minipig [T½] (converted)
# Description: Buffer: • 50 mM Dinatriumphosphatdihydrat • 184 mM Propylenglycol • 58 mM Phenol • pH adjusted to 8.15 with H3PO4. In cases where pH was adjusted to 8.15 after re-suspension of analogues, 0.2 M NaOH was used. Assay (XI) Pharmacokinetic Study in Minipigs
# This is done in a pharmacokinetic (PK) study, whereamong other parameters the terminal half-life and the clearance of the derivative in question is determined. Increasing the terminal half-life and decreasing the clearance means that the compound of study is eliminated slower from the body.
# Male or female Göttingen minipigs were obtained from Ellegaard Göttingen Minipigs (Dalmose, Denmark) approximately 7-14 months of age and weighing from approximately 16-35 kg were used in the studies. The minipigs were housed either individually (pigs with permanent catheters) or in a group and fed restrictedly once or twice daily with SDS minipig diet (Special Diets Services, Essex, UK). In some studies two permanent central venous catheters were implanted in vena cava caudalis or cranialis in each animal after at least 2 weeks of acclimatisation. […] On each dosing occasion these pigs were instrumented with a venflon in one ear vein through which the derivatives were dosed. Blood sampling was done by venipuncture in v. jugularis or v. cava cranialis
# The animals were either unfasted or fasted for approximately 18 h before dosing and from 0 to 4 h after dosing, but had ad libitum access to water during the whole period.
# Intravenous injections (the volume corresponding to usually 2-3 nmol/kg, for example 0.1 ml/kg) of the compounds were given through one catheter or through the venflon, and blood was sampled at predefined time points for up till 13 days post dosing (preferably through the other catheter or by venipuncture). Blood samples (for example 0.8 ml) were collected in tubes with EDTA buffer (8 mM) (sometimes aprotinin 500 KIU/ml blood was added) and then centrifuged at 4° C. and 1942 G for 10 minutes. […] Based on these measurements, time-plasma concentration profiles for the compound of study are plotted and a so-called non-compartmental pharmacokinetic analysis of the data is performed in WinNonlin v. 5.0 or Phoenix v. 6.2 (Pharsight Inc., Mountain View, Calif., USA) or other relevant software for PK analysis. For most compounds, the terminal part of the plasma-concentration profiles will be linear when drawn in a semi-logarithmic plot, reflecting that after the initial distribution, drug is removed from the body at a constant fractional rate. The rate (lambda Z or is equal to minus the slope of the terminal part of the plot. From this rate, also the terminal half-life may be calculated, as t½=ln(2)/λz (see, e.g., Johan Gabrielsson and Daniel Weiner: Pharmacokinetics and Pharmacodynamic Data Analysis. Concepts & Applications, 3rd Ed., Swedish Pharmaceutical Press, Stockholm (2000)).
# Clearance is defined as the dose (D) divided by area under the curve (AUC) on the plasmaconcentration versus time profile (Rowland, M and Tozer T N: Clinical Pharmacokinetics: Concepts and Applications, 3rd edition, 1995 Williams Wilkins)
# T1 sequence (P47871 26-477): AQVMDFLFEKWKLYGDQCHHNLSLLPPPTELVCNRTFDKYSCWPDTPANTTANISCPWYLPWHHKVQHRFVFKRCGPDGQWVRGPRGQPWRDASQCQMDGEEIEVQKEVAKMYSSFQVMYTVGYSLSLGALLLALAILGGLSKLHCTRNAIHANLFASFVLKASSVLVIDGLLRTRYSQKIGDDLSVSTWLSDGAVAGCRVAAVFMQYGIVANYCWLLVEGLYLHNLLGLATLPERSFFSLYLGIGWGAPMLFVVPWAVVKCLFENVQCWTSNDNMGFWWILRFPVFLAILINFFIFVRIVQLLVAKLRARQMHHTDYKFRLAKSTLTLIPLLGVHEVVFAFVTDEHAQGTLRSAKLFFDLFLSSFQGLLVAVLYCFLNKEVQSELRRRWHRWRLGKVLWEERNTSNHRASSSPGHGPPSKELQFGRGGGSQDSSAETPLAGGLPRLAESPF
structure (smiles),measurement,setting,value
"CC(C)C[C@H](NC(=O)[C@H](CC(=O)O)NC(=O)[C@H](CC(C)C)NC(=O)[C@H](Cc1ccc(O)cc1)NC(=O)[C@H](CCCCN)NC(=O)[C@H](CO)NC(=O)[C@H](Cc1ccc(O)cc1)NC(=O)[C@H](CC(=O)O)NC(=O)[C@H](CO)NC(=O)[C@@H](NC(=O)[C@H](Cc1ccccc1)NC(=O)[C@@H](NC(=O)CNC(=O)[C@H](CCC(N)=O)NC(=O)[C@H](CO)NC(=O)[C@@H](N)Cc1c[nH]cn1)[C@@H](C)O)[C@@H](C)O)C(=O)N[C@@H](CCCNC(=N)N)C(=O)N[C@@H](CCCNC(=N)N)C(=O)N[C@@H](C)C(=O)N[C@@H](CCC(N)=O)C(=O)N[C@@H](CC(=O)O)C(=O)N[C@@H](Cc1ccccc1)C(=O)N[C@H](C(=O)N[C@@H](CCCCNC(=O)CC[C@H](NC(=O)CC[C@H](NC(=O)CC[C@H](NC(=O)CC[C@H](NC(=O)CCCCCCCCCCCCCCCCC(=O)O)C(=O)O)C(=O)O)C(=O)O)C(=O)O)C(=O)N[C@@H](Cc1c[nH]c2ccccc12)C(=O)N[C@@H](CC(C)C)C(=O)N[C@@H](CC(C)C)C(=O)N[C@@H](CO)C(=O)N[C@H](C(=O)O)[C@@H](C)O)C(C)C [Example 80, N^ε24-[(4S)-4-carboxy-4-[[(4S)-4-carboxy-4-[[(4S)-4-carboxy-4-[[(4S)-4-carboxy-4-(17-carboxyheptadecanoylamino)butanoyl]amino]butanoyl]amino]butanoyl]amino]butanoyl]-[Leu16,Lys24,Leu27,Ser28]-Glucagon]",EC50,[1],0.126 nM
same,Chemical stability [Purity loss/14 days 37 C.],[2],4.5%
same,half-life,[3],60.9 h
